How the values were obtained:
Experiment in all cases: relative viability (nuclei count vs DMSO), 5 days (fraction); higher = more cells survive
[1] = compound: C1CN(CCC1C(C2=CC3=C(C=C2)OCO3)(C4=CC5=C(C=C4)OCO5)O)C(=O)OC6=CC=C(C=C6)[N+](=O)[O-] [JZL-184] + CC(=O)Nc1cccc(-n2c(=O)n(C3CC3)c(=O)c3c(Nc4ccc(I)cc4F)n(C)c(=O)c(C)c32)c1 [Trametinib] (partner 0.02 µM)
In short: (§1)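 One day after seeding in 1536-well plates, lung cancer cell lines were dosed by pin tool. Dosing was either single-drug or a fixed anchor-drug dose plus five library-drug doses (not always all listed) in √10 steps. After 5 days, nuclei were stained in one fix-and-stain step and counted on 4× images, and relative viability is the nuclei count of treated wells over that of vehicle wells, given as the median of duplicate plates.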

[2] = compound: C1CN(CCC1C(C2=CC3=C(C=C2)OCO3)(C4=CC5=C(C=C4)OCO5)O)C(=O)OC6=CC=C(C=C6)[N+](=O)[O-] [JZL-184] + NC(=O)Nc1cc(-c2cccc(F)c2)sc1C(=O)N[C@H]1CCCNC1 [AZD7762] (partner 0.2 µM)
In short: as §1

[3] = compound: C1CN(CCC1C(C2=CC3=C(C=C2)OCO3)(C4=CC5=C(C=C4)OCO5)O)C(=O)OC6=CC=C(C=C6)[N+](=O)[O-] [JZL-184] + Cc1cc(Nc2cc(N3CCN(C)CC3)nc(Sc3ccc(NC(=O)C4CC4)cc3)n2)n[nH]1 [Tozasertib] (partner 0.1 µM)
In short: as §1

[4] = compound: C1CN(CCC1C(C2=CC3=C(C=C2)OCO3)(C4=CC5=C(C=C4)OCO5)O)C(=O)OC6=CC=C(C=C6)[N+](=O)[O-] [JZL-184] + CC(=O)c1c(C)c2cnc(Nc3ccc(N4CCNCC4)cn3)nc2n(C2CCCC2)c1=O [Palbociclib] (partner 0.5 µM)
In short: as §1

[5] = compound: C1CN(CCC1C(C2=CC3=C(C=C2)OCO3)(C4=CC5=C(C=C4)OCO5)O)C(=O)OC6=CC=C(C=C6)[N+](=O)[O-] [JZL-184] + Cc1nc(Nc2ncc(C(=O)Nc3c(C)cccc3Cl)s2)cc(N2CCN(CCO)CC2)n1 [Dasatinib] (partner 0.075 µM)
In short: as §1

Cell Line	relative viability ([1]; first compound 0.04 µM)	relative viability ([1]; first compound 0.4 µM)	relative viability ([1]; first compound 1.265 µM)	relative viability ([1]; first compound 4 µM)	relative viability ([2]; first compound 0.04 µM)	relative viability ([2]; first compound 0.4 µM)	relative viability ([2]; first compound 1.265 µM)	relative viability ([2]; first compound 4 µM)	relative viability ([3]; first compound 0.04 µM)	relative viability ([3]; first compound 0.4 µM)	relative viability ([3]; first compound 1.265 µM)	relative viability ([3]; first compound 4 µM)	relative viability ([4]; first compound 0.04 µM)	relative viability ([4]; first compound 0.4 µM)	relative viability ([4]; first compound 1.265 µM)	relative viability ([4]; first compound 4 µM)	relative viability ([5]; first compound 0.04 µM)	relative viability ([5]; first compound 0.4 µM)	relative viability ([5]; first compound 1.265 µM)	relative viability ([5]; first compound 4 µM)
NCI-H647	0.455	0.41	0.562	0.504	0.45	0.391	0.426	0.451	0.388	0.425	0.46	0.252	0.369	0.285	0.407	0.359	0.177	0.174	0.283	0.145
NCI-H2009	0.228	0.276	0.329	0.301					0.798	0.699	0.758	0.651	0.172	0.188	0.241	0.219	0.354	0.28	0.333	0.239
EPLC-272H	0.288	0.32	0.272	0.23	0.194	0.186	0.211	0.302	0.59	0.277	0.31	0.198	0.331	0.314	0.326	0.297	0.403	0.41	0.445	0.325
NCI-H520	0.729	0.63	0.686	0.651					0.424	0.407	0.581	0.413	0.189	0.221	0.223	0.219	0.188	0.2	0.178	0.168
NCI-H2405	0.703	0.664	0.69	0.45	0.786	0.533	0.797	0.663	0.759	0.729	0.815	0.732	0.594	0.409	0.541	0.489	0.222	0.21	0.225	0.231
NCI-H2085		0.515	0.527	0.603		0.886	1.02	1.01		0.812	0.845	0.753		0.489	0.44	0.469	0.236	0.234	0.299	0.261
NCI-H322M	0.456	0.48	0.513	0.482	0.549	0.523	0.629	0.521	0.441	0.444	0.49	0.401	0.483	0.449	0.509	0.451	0.252	0.265	0.264	0.252
NCI-H1944	0.438	0.385	0.452	0.417	0.556	0.469	0.531	0.54	0.283	0.251	0.281	0.248	0.338	0.289	0.347	0.328	0.256	0.208	0.221	0.213
LC-2-ad	0.94	0.896	0.93	0.881	0.909	0.8	0.853	0.829	0.451	0.429	0.511	0.385	0.579	0.504	0.488	0.484	0.815	0.496	0.815	0.463
NCI-H358	0.146	0.133	0.148	0.15	0.585	0.639	0.569	0.51	0.104	0.118	0.0969	0.101	0.138	0.142	0.137	0.129	0.167	0.134	0.15	0.155
NCI-H2170	1.01	0.855	0.864	0.825	0.899	0.794	0.928	0.761	0.83	0.646	0.787	0.66	0.439	0.37	0.407	0.366	0.654	0.476	0.577	0.598
NCI-H2342	0.837	0.785	0.972	0.756	0.556	0.39	0.563	0.6	0.432	0.399	0.485	0.449	0.563	0.535	0.522	0.529	0.317	0.293	0.282	0.368
SW 900	0.74	0.783	0.864	0.693	0.573	0.756	0.627	0.594	0.497	0.459	0.605	0.482	0.548	0.513	0.558	0.521	0.543	0.619	0.661	0.509
A-427	0.757	0.75	0.821	0.684	0.807	0.722	0.838	0.703	0.194	0.186	0.264	0.239	0.588	0.515	0.518	0.536	0.785	0.683	0.71	0.706

From the supplement of paper PMC10307832
